Like-named read-outs stand apart in the source and are kept apart here.
Columns and labels:
[1] = tested on: HD (Q111/Q111) striatal cells; assay: Confocal microscopy of H3K9me3 immunoreactivity in HD cells; assay type: cell-based
Experimental: (§1) Immunofluorescence staining and confocal microscopy was used to determine the trimethylated-histone H3 (Lys9) (H3K9me3) (Millipore, Billerica, MA) (1:1000). The procedures were performed as previously described. The specimens were incubated for 1 h with Alexa Fluor 594 goat anti-rabbit antibody (abcam, Cambridge, UK; 1:400) after incubation of the primary antibody. Images were analysed using an A1 Nikon confocal laser scanning microscope (Nikon, Tokyo, Japan).
(§2) Moreover, the promoter assay was carried out.

YAC128 mice [2] = assay: Rotarod test in HD transgenic (YAC128) mice; assay type: in vivo, mouse; conditions: i.p. five times a week, after 4 weeks, vs vehicle treated YAC128 mice
Experimental: (§3) YAC128 mice were bred with females from their background strain (B6CBAFI/J), and offspring were genotyped using PCR as previously described. All mice were weighed at 3 weeks of age and equally distributed according to weight and percentage within each cohort. […] The biochemical and behavioural/neuropathological symptoms of mice were determined after 4 weeks of drug administration. These procedures were performed in accordance with Guide for the Care and Use of Laboratory Animals guidelines. The animal protocol was approved by IACUC (Institutional Animal Care and Use Committee) in Hanyang University, Ansan, Republic of Korea.

YAC128 mice [3] = assay: Toxicity on administration to YAC128 mice; assay type: in vivo; conditions: HD transgenic (YAC128) mice
Experimental: as §3

striatum of YAC128 mice [4] = assay: Acid histone extraction and Western blot of H3K9 methylation in the striatum of YAC128 mice; assay type: in vivo, mouse; conditions: YAC128 mice vs vehicle-treated YAC128 mice
Experimental: Cells were homogenised with Dounce homogeniser in […] of phosphate-buffered saline containing 0.4 mM sodium butyrate, 5% Triton X-100, 3 mM DTT, 1 mM sodium orthovanadate, 5 mM sodium fluoride, 3 mM PMSF, 3 mM DTT, 0.5 mg/ml leupeptin, and 10 mg/ml aprotinin as previously described. The nuclear pellets were collected and washed twice with the above-described 5% Triton buffer. Histones were extracted by solubilising in […] of 0.2 M HCl on a shaker for 2 h. After neutralising the pH of the acid-extracted solution containing the histone pool with ammonium acetate, the protein content was quantified. […] After releasing the vacuum, the nitrocellulose membrane was removed and washed twice with TBS-T for 5 min. Then, the nitrocellulose membrane was blocked with 5% milk/TBS-T for 30 min and subsequently incubated with primary antibody in 5% milk/TBS-T for 24 h at cold room. The nitrocellulose membrane was washed twice with TBS-T for 5 min and incubated with secondary antibody in 1% milk (15 ml) for one hour at room temperature. […]
YAC128 mice were bred with females from their background strain (B6CBAFI/J), and offspring were genotyped using PCR as previously described. […] The biochemical and behavioural/neuropathological symptoms of mice were determined after 4 weeks of drug administration. […]

[5] = Pharmacokinetics after intravenous and oral administration to SD rats; assay type: in vivo, Sprague-Dawley (SD) male rats; conditions: rat, 10 mg/kg; for Kp at 2 h: brain/plasma, read-out: Brain-to-plasma (B/P) ratio at 2 h; for half-life: read-out: Terminal half-life
Excerpt: It is well known that the blood–brain barrier (BBB) is a key obstacle impeding the entry of drugs into the brain.

SETDB1/ESET promoter = SETDB1/ESET promoter assay; assay type: cell-based; conditions: neuronal cells transfected with SETDB1 promoter construct, 0 to 20 µM
Experimental: STHdh^Q7/Q7 (wild type) and STHdh^Q111/Q111 (HD knock-in striatal cell line expresses mutant huntingtin at endogenous level) were generously provided from Dr. Marcy MacDonald (Harvard Medical School, Boston, MA)[35]. The SETDB1/ESET promoter assay was performed as previously described[24]^,[28]. Briefly, 2.5 × 10^5 cells were plated onto 48-well cell culture plates 24 h prior to the transfection of 200 ng of ETDB1/ESET promoter construct. DMRIE-C reagent (Invitrogen, Carlsbad, CA) was used as a transfection reagent and transfections were performed according to the manufacturer’s protocol. Nogalamycin and distamycin were purchased from Sigma-Aldrich (St. Louis, MO).
as §2

Q111 cells = assay: FRET-based histone H3K9 methylation biosensor live cell imaging
Experimental: Fluorescence resonance energy transfer (FRET)-based histone H3K9 methylation biosensor was previously described. In brief, H3K9 biosensor is composed of a methyl-lysine binding domain of HP1 protein and a H3 tail peptide containing lysine9 between ECFP and YPet, and the NLS sequences were added in the C-terminal for the nucleus localisation of the biosensor. For the image acquisition, Q7 or Q111 cells were cultured on cover-glass-bottom dishes and the H3K9 biosensor was transfected into the cells using Lipofectamine 2000 (Invitrogen, Carlsbad, CA) according to the manufacturer’s protocols. Images were collected by a Nikon Ti-E inverted microscope with 420DF20 excitation filter, 450DRLP dichroic mirror, and two emission filters (475DF40 for ECFP and 535DF25 for YPet) controlled by a filter changer. Image analysis was performed using NIS element-AR software. Nucleus regions were selected as the regions of interests and the emission ratio of ECFP and YPet was calculated after background subtraction. The colour of each pixel was determined by the ECFP/YPet ratio value.
as §2

striatum of YAC128 mice [6] = assay: Histology and immunohistochemistry of the striatum of YAC128 mice (Nissl, H3K9me3, DARPP-32, calbindin, DAPI, SUV39H1); assay type: in vivo, mouse
Experimental: as §3, §1
DARPP-32 is a dopamine- and cAMP-regulated neuronal phosphoprotein, which plays an important role in dopamine neurotransmission. Its expression is severely impaired in the striatum of YAC128 mice compared with that of WT mice.
White nodes are interacting genes with the seed genes identified by the network analysis algorithm of IPA. The network represented dense connections between the epigenome associated with chromatin modification (such as Suv39h1, Mecp2, KDM5c, etc.), transcription regulation (such as Elk1, Foxp4, Hoxa6, Dhx9, etc.), metabolic process (such as Acsl4, Fbp2, Nat2, etc.), and signal transduction pathways (such as Cnksr2, Dusp9, Rab9, etc.) (Figure 8(d)). Especially, SUV39H1, a histone H3K9 methyltransferase, was closely associated with signalling pathways and other modules (Figure 8(d)). We further verified that SUV39H1 immunoreactivity was markedly elevated in YAC128 mice (Figure 8(e)).

SETDB1 enzyme = SETDB1 enzyme (Homo sapiens, UniProt Q15047); assay: biochemical
Experimental: SETDB1 enzyme activity was analysed using commercially available SETBD1 chemiluminescent assay kit (BPS Bioscience, San Diego, CA, #51056) according to the manufacturer’s instructions. All analyses were performed in duplicates and all reagents used are supplied in the kit. […] Total 50 µL mixture of histone methylation transfer buffer (50 mM Tris–HCl, pH 9.0, 1 mM phenylmethylsulfonyl fluoride, and 0.5 mM dithiothreitol) containing 20 µM SAM, each concentration of inhibitors and 1.25 ng/µL SETDB1 enzyme was added to each well of a 96-well plate. The wells were pre-coated with histone H3 peptide substrate. Reactions were allowed to proceed for 1 h 30 min at room temperature. Methylated K9 residue of H3 peptide was detected with anti-methylated H3K9 primary antibody and HRP-conjugated secondary antibody. Chemiluminescence resulting from the reaction between the HRP-conjugated secondary antibody and the added HRP substrate was measured using a SpectraMax M2 plate reader (Molecular Devices, Sunnyvale, CA).
The inhibitory activity at each concentration was recorded by detecting chemiluminescence signal after treatment of H3K9 antibody followed by addition of the HRP substrate.

[7] = male, Sprague-Dawley, plasma, intravenous
[8] = male, Sprague-Dawley, plasma, oral
[9] = male, Sprague-Dawley, intravenous, plasma
[10] = male, Sprague-Dawley, oral, plasma

## C=CCOc1cccc2nc(N3CCCC3)ccc12 [APQ, 5-allyloxy-2-(pyrrolidin-1-yl)quinoline]
[1]
  H3K9me3 immunoreactivity: considerably decreased
YAC128 mice [2]
  motor behaviour (rotarod test): significantly improved
YAC128 mice [3]
  toxicity: minimal toxicity
Striatum of YAC128 mice [4]
  H3K9me3, H3K9me1 and H3K9me2 levels in the striatum (Western blot): selectively decreased H3K9me3 levels but not H3K9me1 or H3K9me2 levels
[5]; male, Sprague-Dawley, intravenous
  Kp at 2 h: 4.18
[5]; male, Sprague-Dawley, oral
  Kp at 2 h: 0.44
[5]; male, Sprague-Dawley, brain, intravenous, read-out: Brain concentration at 2 h
  concentration at 2 h: 407 ng/mL
[5]; male, Sprague-Dawley, brain, oral, read-out: Brain concentration at 2 h
  concentration at 2 h: 3.7 ± 1.1 ng/mL
[5]; [7]
  MRT: 1.6 h
  clearance: 183 ± 26.1 mL/min/kg
  concentration at 8 h: 20 ng/mL
  half-life: 2.55 ± 0.101 h
[5]; male, Sprague-Dawley, plasma, intravenous, read-out: Plasma concentration at 2 h
  concentration at 2 h: 100 ng/mL
[5]; male, Sprague-Dawley, plasma, intravenous, read-out: Vss
  Vd: 25.6 ± 5.2 L/kg
[5]; male, Sprague-Dawley, plasma, oral vs intravenous, read-out: F (bioavailability)
  bioavailability: 6.7%
[5]; [8]
  Cmax: 40 ± 10 ng/mL
  concentration at 8 h: 0 ng/mL
  half-life: 1.58 ± 0.223 h
[5]; male, Sprague-Dawley, plasma, oral, median (range)
  Tmax: 1 h
[5]; male, Sprague-Dawley, plasma, oral, read-out: Plasma concentration at 2 h
  concentration at 2 h: 10 ng/mL
[5]; [9]
  AUC(0-inf): 923 ng·h/mL
  AUC(0-t): 858 ng·h/mL
[5]; [10]
  AUC(0-inf): 61.7 ng·h/mL
  AUC(0-t): 60.7 ng·h/mL
[5]; intravenous
  Ae (excreted amount): 0.00%
  Brain concentration at 2 h: 406.6 ± 81.3 ng/mL
  Plasma concentration at 2 h: 100 ± 10 ng/mL
[5]; oral
  Ae (excreted amount): 0.00%
SETDB1/ESET promoter
  transcriptional activity of SETDB1 (promoter assay): represses the transcriptional activity of SETDB1 in a dose-dependent manner
Q111 cells
  FRET/ECFP ratios of H3K9 methylation: effectively modulates
Striatum of YAC128 mice [6]
  DARPP-32 expression in the striatum: considerably improved
  immunoreactive intensity of calbindin stained neurons: increased
  nuclei size of medium spiny neurons (DAPI): restores
Striatum of YAC128 mice [6]; comparable to the level of WT controls
  H3K9me3 immunoreactivity in striatal neurons: significantly reduced
Striatum of YAC128 mice [6]; similar to the level in WT mice
  level of SUV39H1 (immunoreactivity) in striatal neurons: significantly reduced
Striatum of YAC128 mice [6]; striatum
  neuronal atrophy / size of striatal medium spiny neurons (Nissl staining): significantly restored
SETDB1 enzyme
  IC50: 65 µM

From paper PMC8008885 (Journal of Enzyme Inhibition and Medicinal Chemistry, 2021)
